From ChEMBL document CHEMBL1151603, “Unsymmetrically substituted guanidines as potent histamine H3-receptor antagonists” (Bioorg Med Chem Lett, 1994)

Assays:
Histamine H3 receptor [1] = biological target: T1, Histamine H3 receptor (Cavia porcellus, UniProt Q9JI35); experiment: Antagonistic activity for Histamine H3 receptor on electrically evoked guinea-pig ileum contraction; type: functional, tissue-based
Histamine H3 receptor [2] = biological target: T1, Histamine H3 receptor; experiment: Antagonistic activity for Histamine H3 receptor binding in guinea pig

T1 sequence (Q9JI35 whole entry): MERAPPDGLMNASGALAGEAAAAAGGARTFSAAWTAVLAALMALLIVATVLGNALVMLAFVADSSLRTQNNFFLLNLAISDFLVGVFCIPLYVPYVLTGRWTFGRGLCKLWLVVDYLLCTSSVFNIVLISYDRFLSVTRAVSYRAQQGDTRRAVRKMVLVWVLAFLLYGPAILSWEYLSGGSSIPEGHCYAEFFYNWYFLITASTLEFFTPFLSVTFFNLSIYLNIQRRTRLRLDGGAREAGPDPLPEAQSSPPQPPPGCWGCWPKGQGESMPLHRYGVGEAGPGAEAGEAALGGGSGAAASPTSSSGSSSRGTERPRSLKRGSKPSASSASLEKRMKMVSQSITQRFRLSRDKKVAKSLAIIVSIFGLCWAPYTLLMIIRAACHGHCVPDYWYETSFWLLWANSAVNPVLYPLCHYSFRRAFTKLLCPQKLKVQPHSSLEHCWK

SMILES	Ki (Histamine H3 receptor [1])	Ki (Histamine H3 receptor [2])
S=C(NC1CCCCC1)N1CCC(c2cnc[nH]2)CC1 [THIOPERAMIDE]	3.98 nM	–
N=C(NCCCc1c[nH]cn1)NCC1CCCCC1	0.794 nM	0.74 nM
CC(C)(C)OC(=O)N/C(=N/CC1CCCCC1)NCCCc1c[nH]cn1	10 nM	9.5 nM
N=C(NCCCc1c[nH]cn1)NCc1ccc(I)cc1	1.58 nM	1.6 nM
N=C(NCCc1ccccc1)NCCc1cnc[nH]1	100 nM	110 nM
CC(C)(C)OC(=O)N/C(=N/C1CCCCC1)NCCCCc1c[nH]cn1	6.31 nM	7 nM
O=C(N/C(=N/CC1CCCCC1)NCCCc1c[nH]cn1)OCc1ccccc1	12.6 nM	13 nM
CC(C)(C)OC(=O)N/C(=N\CCCc1c[nH]cn1)NCc1ccc(I)cc1	12.6 nM	12 nM
N=C(NCCCCc1c[nH]cn1)NC1CCCCC1	5.01 nM	5.01 nM
CCOC(=O)N/C(=N/CC1CCCCC1)NCCCc1c[nH]cn1	39.8 nM	36 nM
N#CN=C(NCCCc1cnc[nH]1)NCC1CCCCC1	20 nM	22 nM
